Experimental findings from patent US20240116985A1, “STAPLED PEPTIDES AND METHODS THEREOF” (priority 2020, published 2024) are described below.

Where only a bound is given, the exact number is not on record here.

Assay [1] has as its target T1, full-length beta-Catenin (Uniprot ID P35222) (Homo sapiens, UniProt P35222).
T1 construct: 10 nM full-length beta-Catenin (Uniprot ID P35222)
T1 sequence (P35222 1-781): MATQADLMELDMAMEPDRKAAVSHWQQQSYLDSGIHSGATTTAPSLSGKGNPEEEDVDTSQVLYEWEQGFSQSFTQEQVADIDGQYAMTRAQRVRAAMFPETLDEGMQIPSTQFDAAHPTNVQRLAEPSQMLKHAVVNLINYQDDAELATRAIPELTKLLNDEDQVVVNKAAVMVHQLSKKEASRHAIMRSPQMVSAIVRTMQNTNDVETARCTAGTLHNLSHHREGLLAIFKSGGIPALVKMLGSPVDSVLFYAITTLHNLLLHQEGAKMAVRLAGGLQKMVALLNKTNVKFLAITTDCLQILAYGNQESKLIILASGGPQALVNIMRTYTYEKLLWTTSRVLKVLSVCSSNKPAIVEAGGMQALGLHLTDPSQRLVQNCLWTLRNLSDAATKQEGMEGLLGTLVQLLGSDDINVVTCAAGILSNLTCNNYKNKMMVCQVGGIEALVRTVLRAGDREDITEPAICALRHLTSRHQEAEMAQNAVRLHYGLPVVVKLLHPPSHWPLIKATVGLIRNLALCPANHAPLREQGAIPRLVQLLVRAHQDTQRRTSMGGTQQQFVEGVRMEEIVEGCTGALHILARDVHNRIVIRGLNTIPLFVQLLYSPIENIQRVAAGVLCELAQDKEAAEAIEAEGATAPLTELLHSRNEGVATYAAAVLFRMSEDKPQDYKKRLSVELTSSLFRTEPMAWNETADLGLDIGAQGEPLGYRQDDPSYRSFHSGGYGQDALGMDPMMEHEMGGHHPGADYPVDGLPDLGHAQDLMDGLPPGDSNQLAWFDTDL
As to the kind of experiment: Fluorescence polarization IC50 (beta-catenin / 5FAM-TCF4 10-53 competition). It counts as binding. The settings on record: fluorescence polarization; read-out: beta-Catenin FP IC50. (Polarisation of emitted light reports the rotation of a fluorescent probe.)

Assay [2] deals with T2, beta-catenin/TCF4 engagement (Homo sapiens, UniProt P35222).
T2 construct: expressed in transfected cells; host or cells: HEK293
T2 sequence (P35222 1-781): T1 sequence (P35222 1-781)
Description: Nano-BRET target engagement assay (B-cat-Halo & TCF4-Luc in HEK293 cells). It counts as cell-based. The conditions noted are these: absolute IC50; read-out: NanoBRET Abs IC50.

As usually defined, the IC50 is the concentration that gives 50% inhibition. As for `CC(=O)N1CCC[C@]12CC=CCCCC1(CCCC=CCCCOC(=O)N3CC[C@@](C(=O)N[C@@H](Cc4ccsc4)C(=O)N[C@@H](Cc4csc5ccccc45)C(=O)N[C@@H](CCC(N)=O)C(N)=O)(C3)NC(=O)[C@H](CC(C)C)NC(=O)[C@H](Cc3ccccc3)NC(=O)[C@H](C)NC(=O)[C@H](C)NC(=O)[C@H](CCN(CC(=O)O)C(=O)CCCN(C)C)NC(=O)[C@H](CC(=O)O)NC1=O)NC(=O)[C@H](CC(C)(C)C)NC(=O)[C@H](CC(=O)O)NC2=O` (stereo partly drawn) [I-2243, Ac-PL3-Asp-Npg-B5-Asp-[NdiMeButC]GAbu-Ala-Ala-Phe-Leu-PyrS2-3Thi-BztA-Gln-NH2], the figures for the IC50 in assay [1] and in assay [2] were 15 nM and 25200 nM, respectively.

Consider `CC(=O)N1CCC[C@]12CC=CCCCC1(CCCC=CCCCOC(=O)N3CC[C@@](C(=O)N[C@@H](Cc4ccsc4)C(=O)N[C@@H](Cc4csc5ccccc45)C(=O)N[C@@H](CCC(N)=O)C(N)=O)(C3)NC(=O)[C@H](CC(C)C)NC(=O)[C@H](Cc3ccccc3)NC(=O)[C@H](C)NC(=O)[C@H](C)NC(=O)[C@H](CCN(CC(=O)O)C(=O)C3CCN(C)CC3)NC(=O)[C@H](CC(=O)O)NC1=O)NC(=O)[C@H](CC(C)(C)C)NC(=O)[C@H](CC(=O)O)NC2=O` (stereo partly drawn) [I-2245, Ac-PL3-Asp-Npg-B5-Asp-[4AcMePip]GAbu-Ala-Ala-Phe-Leu-PyrS2-3Thi-BztA-Gln-NH2], for which the results for the concentration for half-maximal inhibition (IC50) in assay [1] and in assay [2] were 26 nM and greater than 20000 nM, respectively.

Take `CC(=O)N1CCC[C@]12CC=CCCCC1(CCCC=CCCCOC(=O)N3CC[C@@](C(=O)N[C@@H](Cc4ccsc4)C(=O)N[C@@H](Cc4csc5ccccc45)C(=O)N[C@@H](CCC(N)=O)C(N)=O)(C3)NC(=O)[C@H](CC(C)C)NC(=O)[C@H](Cc3ccccc3)NC(=O)[C@H](C)NC(=O)[C@H](C)NC(=O)[C@H](CCN(CC(=O)O)C(=O)Cc3ccc(C(F)(F)F)cc3)NC(=O)[C@H](CC(=O)O)NC1=O)NC(=O)[C@H](CC(C)(C)C)NC(=O)[C@H](CC(=O)O)NC2=O` (stereo partly drawn) [I-2246, Ac-PL3-Asp-Npg-B5-Asp-[4CF3PhAc]GAbu-Ala-Ala-Phe-Leu-PyrS2-3Thi-BztA-Gln-NH2]: the IC50 is 27 nM in assay [1] and 12900 nM in assay [2].

On to `CC(=O)N1CCC[C@]12CC=CCCCC1(CCCC=CCCCOC(=O)N3CC[C@@](C(=O)N[C@@H](Cc4ccsc4)C(=O)N[C@@H](Cc4csc5ccccc45)C(=O)N[C@@H](CCC(N)=O)C(N)=O)(C3)NC(=O)[C@H](CC(C)C)NC(=O)[C@H](Cc3ccccc3)NC(=O)[C@H](C)NC(=O)[C@H](C)NC(=O)[C@H](CCN(CC(=O)O)C(=O)c3ccccn3)NC(=O)[C@H](CC(=O)O)NC1=O)NC(=O)[C@H](CC(C)(C)C)NC(=O)[C@H](CC(=O)O)NC2=O` (stereo partly drawn) [I-2247, Ac-PL3-Asp-Npg-B5-Asp-[Pic]GAbu-Ala-Ala-Phe-Leu-PyrS2-3Thi-BztA-Gln-NH2], for which the figures for the IC50 in assay [1] and in assay [2] were 8 nM and 5900 nM, respectively.

Regarding `CC(=O)N1CCC[C@]12CC=CCCCC1(CCCC=CCCCOC(=O)N3CC[C@@](C(=O)N[C@@H](Cc4ccsc4)C(=O)N[C@@H](Cc4csc5ccccc45)C(=O)N[C@@H](CCC(N)=O)C(N)=O)(C3)NC(=O)[C@H](CC(C)C)NC(=O)[C@H](Cc3ccccc3)NC(=O)[C@H](C)NC(=O)[C@H](C)NC(=O)[C@H](CCN(CC(=O)O)C(=O)c3ccc(CN4CCOCC4)cc3)NC(=O)[C@H](CC(=O)O)NC1=O)NC(=O)[C@H](CC(C)(C)C)NC(=O)[C@H](CC(=O)O)NC2=O` (stereo partly drawn) [I-2248, Ac-PL3-Asp-Npg-B5-Asp-[MeMorphBz]GAbu-Ala-Ala-Phe-Leu-PyrS2-3Thi-BztA-Gln-NH2], the IC50 was found to be 8 nM in assay [1] and 21500 nM in assay [2].

As for `CC(=O)N1CCC[C@]12CC=CCCCC1(CCCC=CCCCOC(=O)N3CC[C@@](C(=O)N[C@@H](Cc4ccsc4)C(=O)N[C@@H](Cc4csc5ccccc45)C(=O)N[C@@H](CCC(N)=O)C(N)=O)(C3)NC(=O)[C@H](CC(C)C)NC(=O)[C@H](Cc3ccccc3)NC(=O)[C@H](C)NC(=O)[C@H](C)NC(=O)[C@H](CCN(CC(=O)O)C(=O)Cc3c(F)c(F)c(F)c(F)c3F)NC(=O)[C@H](CC(=O)O)NC1=O)NC(=O)[C@H](CC(C)(C)C)NC(=O)[C@H](CC(=O)O)NC2=O` (stereo partly drawn) [I-2251, Ac-PL3-Asp-Npg-B5-Asp-[PfPhAc]GAbu-Ala-Ala-Phe-Leu-PyrS2-3Thi-BztA-Gln-NH2], the figures for the IC50 in assay [1] and in assay [2] were 15 nM and 6400 nM, respectively.

With `CC(=O)N1CCC[C@]12CC=CCCCC1(CCCC=CCCCOC(=O)N3CC[C@@](C(=O)N[C@@H](Cc4ccsc4)C(=O)N[C@@H](Cc4csc5ccccc45)C(=O)N[C@@H](CCC(N)=O)C(N)=O)(C3)NC(=O)[C@H](CC(C)C)NC(=O)[C@H](Cc3ccccc3)NC(=O)[C@H](C)NC(=O)[C@H](C)NC(=O)[C@H](CCN(CC(=O)O)C(=O)c3c(F)c(F)c(F)c(F)c3F)NC(=O)[C@H](CC(=O)O)NC1=O)NC(=O)[C@H](CC(C)(C)C)NC(=O)[C@H](CC(=O)O)NC2=O` (stereo partly drawn) [I-2252, Ac-PL3-Asp-Npg-B5-Asp-[PfBz]GAbu-Ala-Ala-Phe-Leu-PyrS2-3Thi-BztA-Gln-NH2], the IC50 in assay [1] was determined as 31 nM; in assay [2] it was 17500 nM.

With `CC(=O)N1CCC[C@]12CC=CCCCC1(CCCC=CCCCOC(=O)N3CC[C@@](C(=O)N[C@@H](Cc4ccsc4)C(=O)N[C@@H](Cc4csc5ccccc45)C(=O)N[C@@H](C)C(N)=O)(C3)NC(=O)[C@H](CC(C)C)NC(=O)[C@H](Cc3ccccc3)NC(=O)[C@H](C)NC(=O)[C@H](C)NC(=O)[C@H](Cc3cccc(C(=O)O)c3)NC(=O)[C@H](CC(=O)O)NC1=O)NC(=O)[C@H](CC(C)(C)C)NC(=O)[C@H](CC(=O)O)NC2=O` (stereo partly drawn) [I-2257, Ac-PL3-Asp-Npg-B5-Asp-3COOHF-Ala-Ala-Phe-Leu-PyrS2-3Thi-BztA-Ala-NH2], the IC50 in assay [1] was found to be 15 nM; in assay [2], 2900 nM.

As for `CC(=O)N1CCC[C@]12CC=CCCCC1(CCCC=CCCCOC(=O)N3CC[C@@](C(=O)N[C@@H](Cc4ccsc4)C(=O)N[C@@H](Cc4csc5ccccc45)C(=O)N[C@@H](C)C(N)=O)(C3)NC(=O)[C@H](Cc3ccccc3)NC(=O)[C@H](Cc3ccccc3)NC(=O)[C@H](C)NC(=O)[C@H](C)NC(=O)[C@H](Cc3cccc(C(=O)O)c3)NC(=O)[C@H](CC(=O)O)NC1=O)NC(=O)[C@H](CC(C)(C)C)NC(=O)[C@H](CC(=O)O)NC2=O` (stereo partly drawn) [I-2259, Ac-PL3-Asp-Npg-B5-Asp-3COOHF-Ala-Ala-Phe-Phe-PyrS2-3Thi-BztA-Ala-NH2], the IC50 worked out at 30 nM in assay [1] and 4300 nM in assay [2].

As to `CC(=O)N1CCC[C@]12CC=CCCCC1(CCCC=CCCCOC(=O)N3CC[C@@](C(=O)N[C@@H](Cc4ccsc4)C(=O)N[C@@H](Cc4csc5ccccc45)C(=O)N[C@@H](C)C(N)=O)(C3)NC(=O)[C@H](CC(C)C)NC(=O)[C@H](Cc3cccc(F)c3)NC(=O)[C@H](C)NC(=O)[C@H](C)NC(=O)[C@H](Cc3cccc(C(=O)O)c3)NC(=O)[C@H](CC(=O)O)NC1=O)NC(=O)[C@H](CC(C)(C)C)NC(=O)[C@H](CC(=O)O)NC2=O` (stereo partly drawn) [I-2260, Ac-PL3-Asp-Npg-B5-Asp-3COOHF-Ala-Ala-3FF-Leu-PyrS2-3Thi-BztA-Ala-NH2], the IC50 in assay [1] turned out to be 21 nM; in assay [2], 3100 nM.

Regarding `CC(=O)N1CCC[C@]12CC=CCCCC1(CCCC=CCCCOC(=O)N3CC[C@@](C(=O)N[C@@H](Cc4cccc(F)c4)C(=O)N[C@@H](Cc4csc5ccccc45)C(=O)N[C@@H](C)C(N)=O)(C3)NC(=O)[C@H](CC(C)C)NC(=O)[C@H](Cc3ccccc3)NC(=O)[C@H](C)NC(=O)[C@H](C)NC(=O)[C@H](Cc3cccc(C(=O)O)c3)NC(=O)[C@H](CC(=O)O)NC1=O)NC(=O)[C@H](CC(C)(C)C)NC(=O)[C@H](CC(=O)O)NC2=O` (stereo partly drawn) [I-2261, Ac-PL3-Asp-Npg-B5-Asp-3COOHF-Ala-Ala-Phe-Leu-PyrS2-3FF-BztA-Ala-NH2], the figures for the IC50 in assay [1] and in assay [2] were 34 nM and 6400 nM, respectively.

In the case of `CC(=O)N1CCC[C@]12CC=CCCCC1(CCCC=CCCCOC(=O)N3CC[C@@](C(=O)N[C@@H](Cc4ccsc4)C(=O)N[C@@H](Cc4csc5ccccc45)C(=O)N[C@@H](C)C(N)=O)(C3)NC(=O)[C@H](CC(C)C)NC(=O)[C@H](Cc3ccc(F)cc3)NC(=O)[C@H](C)NC(=O)[C@H](C)NC(=O)[C@H](Cc3cccc(C(=O)O)c3)NC(=O)[C@H](CC(=O)O)NC1=O)NC(=O)[C@H](CC(C)(C)C)NC(=O)[C@H](CC(=O)O)NC2=O` (stereo partly drawn) [I-2262, Ac-PL3-Asp-Npg-B5-Asp-3COOHF-Ala-Ala-4FF-Leu-PyrS2-3Thi-BztA-Ala-NH2], the IC50 is 18 nM in assay [1] and 3700 nM in assay [2].

Take `CC(=O)N1CCC[C@]12CC=CCCCC1(CCCC=CCCCOC(=O)N3CC[C@@](C(=O)N[C@@H](Cc4ccc(F)cc4)C(=O)N[C@@H](Cc4csc5ccccc45)C(=O)N[C@@H](C)C(N)=O)(C3)NC(=O)[C@H](CC(C)C)NC(=O)[C@H](Cc3ccccc3)NC(=O)[C@H](C)NC(=O)[C@H](C)NC(=O)[C@H](Cc3cccc(C(=O)O)c3)NC(=O)[C@H](CC(=O)O)NC1=O)NC(=O)[C@H](CC(C)(C)C)NC(=O)[C@H](CC(=O)O)NC2=O` (stereo partly drawn) [I-2263, Ac-PL3-Asp-Npg-B5-Asp-3COOHF-Ala-Ala-Phe-Leu-PyrS2-4FF-BztA-Ala-NH2]: the figures for the IC50 in assay [1] and in assay [2] were 47 nM and 4300 nM, respectively.
